Laboratory results taken from PubChem BioAssay AID330 (DTP/NCI, 2004).
Where “and” joins values, the source holds several entries; their conditions need not be identical. Equal entries are not always repeated. Toxic doses and inconclusive results are not listed. How the source made its calls: active means survival T/C of 150% or more; inactive means T/C below 125% in these data.

Test system: P388 leukemia ip, CD2F1 mice, survival T/C
Test: NCI In Vivo Anticancer Drug Screen. Data for tumor model P388 Leukemia (intraperitoneal) in CD2F1 (CDF1) mice
Settings: endpoint: median survival time, higher = longer survival
How it was run: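 Mice carrying the transplanted tumor received test compound or vehicle. Survival was recorded in each group, and the value is the treated-group measurement divided by that of the vehicle-treated control group.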

[1] = dose: 50.0 mg/kg/injection, schedule: Q01DX005 (ip), vehicle: saline with Tween-80
[2] = dose: 100.0 mg/kg/injection, schedule: Q01DX005 (ip), vehicle: saline with Tween-80
[3] = dose: 200.0 mg/kg/injection, schedule: Q01DX005 (ip), vehicle: saline with Tween-80
[4] = dose: 50.0 mg/kg/injection, schedule: Q01DX005 (ip), vehicle: Klucel (hydroxypropylcellulose) (HPC)
[5] = dose: 100.0 mg/kg/injection, schedule: Q01DX005 (ip), vehicle: Klucel (hydroxypropylcellulose) (HPC)
[6] = dose: 200.0 mg/kg/injection, schedule: Q01DX005 (ip), vehicle: Klucel (hydroxypropylcellulose) (HPC)
[7] = dose: 50.0 mg/kg/injection, schedule: Q04DX003 (ip), vehicle: Klucel (hydroxypropylcellulose) (HPC)
[8] = dose: 100.0 mg/kg/injection, schedule: Q04DX003 (ip), vehicle: Klucel (hydroxypropylcellulose) (HPC)
[9] = dose: 50.0 mg/kg/injection, schedule: Q01DX009 (ip), vehicle: Klucel (hydroxypropylcellulose) (HPC)
[10] = dose: 100.0 mg/kg/injection, schedule: Q01DX009 (ip), vehicle: Klucel (hydroxypropylcellulose) (HPC)
[11] = dose: 200.0 mg/kg/injection, schedule: Q01DX009 (ip), vehicle: Klucel (hydroxypropylcellulose) (HPC)

Measured: T/C

CCOC(=O)CN1CCC(C(O)c2cc3ccccc3[nH]2)CC1 (stereo not drawn)
inactive: dose: 100.0 mg/kg/injection, schedule: Q01DX001 (ip), vehicle: saline 106 % of control | dose: 200.0 mg/kg/injection, schedule: Q01DX001 (ip), vehicle: saline 110 % of control | dose: 400.0 mg/kg/injection, schedule: Q01DX001 (ip), vehicle: saline 109 % of control

NS(=O)(=O)c1ccc(N=c2c3ccccc3n(-c3ccccc3)c3ccccc23)cc1
inactive: [1] 102 % of control | [2] 93 % of control | [3] 90 % of control

CN(/N=C\c1cc(Cl)cc(Cl)c1O)c1ccccc1[N+](=O)[O-]
inactive: [4] 101 % of control | [5] 95 % of control | [6] 101 % of control

C=C(Cl)C(=NC(C)(C)C)Nc1ccc(Cl)cc1
inactive: dose: 6.25 mg/kg/injection, schedule: Q01DX005 (ip), vehicle: Klucel (hydroxypropylcellulose) (HPC) 114 % of control | dose: 12.5 mg/kg/injection, schedule: Q01DX005 (ip), vehicle: Klucel (hydroxypropylcellulose) (HPC) 117 % of control | dose: 25.0 mg/kg/injection, schedule: Q01DX005 (ip), vehicle: Klucel (hydroxypropylcellulose) (HPC) 112 % of control | [4] 110 % of control | [5] 115 % of control

O=c1c2c([nH]c(=S)n1-c1ccccc1)NCCC2
inactive: [7] 101 % of control | [8] 101 % of control | dose: 200.0 mg/kg/injection, schedule: Q04DX003 (ip), vehicle: Klucel (hydroxypropylcellulose) (HPC) 111 % of control

O=C1c2ccccc2-c2c1c1ccccc1c(=O)n2-c1ccccc1
inactive: [1] 102 % of control | [2] 107 % of control | [3] 100 % of control

CCOC(=O)c1ccc(NC(=O)CCOc2ccccc2)cc1
inactive: dose: 60.0 mg/kg/injection, schedule: Q01DX005 (ip), vehicle: Klucel (hydroxypropylcellulose) (HPC) 88 % of control | dose: 120.0 mg/kg/injection, schedule: Q01DX005 (ip), vehicle: Klucel (hydroxypropylcellulose) (HPC) 88 % of control | dose: 240.0 mg/kg/injection, schedule: Q01DX005 (ip), vehicle: Klucel (hydroxypropylcellulose) (HPC) 87 % of control

Cc1cc(NC(=S)SCc2ccc(Cl)cc2)ccc1Br
inactive: dose: 12.5 mg/kg/injection, schedule: Q01DX009 (ip), vehicle: saline with Tween-80 124 % of control | dose: 25.0 mg/kg/injection, schedule: Q01DX009 (ip), vehicle: saline with Tween-80 119 % of control | [9] 114 % of control and 124 % of control | dose: 50.0 mg/kg/injection, schedule: Q01DX009 (ip), vehicle: saline with Tween-80 124 % of control | dose: 50.0 mg/kg/injection, schedule: Q01DX009 (ip), vehicle: suspension in saline 108 % of control | [10] 118 % of control and 120 % of control | dose: 100.0 mg/kg/injection, schedule: Q01DX009 (ip), vehicle: suspension in saline 101 % of control | [11] 123 % of control | dose: 200.0 mg/kg/injection, schedule: Q01DX009 (ip), vehicle: suspension in saline 113 % of control

CC1(C)/C(=C/c2ccccc2)C(=O)c2ccccc21
inactive: dose: 100.0 mg/kg/injection, schedule: Q01DX009 (ip), vehicle: saline with Tween-80 90 % of control | dose: 200.0 mg/kg/injection, schedule: Q01DX009 (ip), vehicle: saline with Tween-80 100 % of control | dose: 400.0 mg/kg/injection, schedule: Q01DX009 (ip), vehicle: saline with Tween-80 100 % of control

CCOC(=O)Cn1nc([O-])[n+]2ccccc12
inactive: dose: 100.0 mg/kg/injection, schedule: Q04DX002 (ip), vehicle: saline 100 % of control | dose: 200.0 mg/kg/injection, schedule: Q04DX002 (ip), vehicle: saline 107 % of control | dose: 400.0 mg/kg/injection, schedule: Q04DX002 (ip), vehicle: saline 98 % of control

CCSc1nc2ccc(N=C/C=C/c3ccccc3)cc2s1
inactive: [9] 110 % of control | [10] 98 % of control | [11] 110 % of control

CC1(C#N)N=C(c2ccccc2)c2ccccc2N1C(=O)Oc1ccccc1 (stereo not drawn)
inactive: dose: 60.0 mg/kg/injection, schedule: Q01DX005 (ip), vehicle: saline with Tween-80 98 % of control | dose: 120.0 mg/kg/injection, schedule: Q01DX005 (ip), vehicle: saline with Tween-80 98 % of control

COC(=O)CC1CC(CCO)=C(C)C1=O (stereo not drawn)
inactive: dose: 60.0 mg/kg/injection, schedule: Q01DX005 (ip), vehicle: saline 101 % of control | dose: 120.0 mg/kg/injection, schedule: Q01DX005 (ip), vehicle: saline 99 % of control | dose: 240.0 mg/kg/injection, schedule: Q01DX005 (ip), vehicle: saline 100 % of control

CN(C)c1ccc(/C=C/c2ccnc3c2ccc2ccccc23)cc1
inactive: dose: 37.5 mg/kg/injection, schedule: Q04DX003 (ip), vehicle: Klucel (hydroxypropylcellulose) (HPC) 108 % of control | dose: 50.0 mg/kg/injection, schedule: Q01DX001 (ip), vehicle: saline with Tween-80 106 % of control | dose: 75.0 mg/kg/injection, schedule: Q04DX003 (ip), vehicle: Klucel (hydroxypropylcellulose) (HPC) 89 % of control | dose: 100.0 mg/kg/injection, schedule: Q01DX001 (ip), vehicle: saline with Tween-80 93 % of control | dose: 150.0 mg/kg/injection, schedule: Q04DX003 (ip), vehicle: Klucel (hydroxypropylcellulose) (HPC) 103 % of control | dose: 200.0 mg/kg/injection, schedule: Q01DX001 (ip), vehicle: saline with Tween-80 91 % of control | dose: 300.0 mg/kg/injection, schedule: Q04DX003 (ip), vehicle: Klucel (hydroxypropylcellulose) (HPC) 96 % of control | dose: 400.0 mg/kg/injection, schedule: Q01DX001 (ip), vehicle: saline with Tween-80 91 % of control

CC(CC1(c2ccccc2)C(=O)NC(=O)NC1=O)OC(=O)c1ccc([N+](=O)[O-])cc1 (stereo not drawn)
inactive: [9] 103 % of control | [10] 100 % of control | [11] 99 % of control

CC(C)CC(Br)C(=O)NCC(=O)O (stereo not drawn)
inactive: dose: 100.0 mg/kg/injection, schedule: Q04DX003 (ip), vehicle: saline with Tween-80 104 % of control | dose: 200.0 mg/kg/injection, schedule: Q04DX003 (ip), vehicle: saline with Tween-80 100 % of control | dose: 400.0 mg/kg/injection, schedule: Q04DX003 (ip), vehicle: saline with Tween-80 104 % of control

CC(=O)/C(=C\c1ccc(O)cc1)C(=O)CCN(C)C
inactive: [1] 108 % of control | [2] 112 % of control | [3] 112 % of control

CC(C)CNC1=CC(=S)NC(C)(C)C1
inactive: [4] 99 % of control | [5] 101 % of control | [6] 94 % of control

CCOCC(=O)c1ccc2c(O)c3c(c(O)c2c1)C(=O)c1cccc(OC)c1C3=O
inactive: dose: 1.56 mg/kg/injection, schedule: Q01DX009 (ip), vehicle: other 105 % of control | dose: 3.13 mg/kg/injection, schedule: Q01DX009 (ip), vehicle: other 104 % of control | dose: 6.25 mg/kg/injection, schedule: Q01DX009 (ip), vehicle: other 103 % of control | dose: 12.5 mg/kg/injection, schedule: Q01DX009 (ip), vehicle: other 106 % of control | dose: 25.0 mg/kg/injection, schedule: Q01DX009 (ip), vehicle: other 108 % of control

COc1ccc(/C=C/c2nc(Nc3ccc(S(N)(=O)=O)cc3)c3ccccc3n2)cc1
inactive: dose: 50.0 mg/kg/injection, schedule: Q01DX009 (ip), vehicle: acetone 102 % of control | dose: 100.0 mg/kg/injection, schedule: Q01DX009 (ip), vehicle: acetone 99 % of control | dose: 200.0 mg/kg/injection, schedule: Q01DX009 (ip), vehicle: acetone 96 % of control

CCCC(CCC)(C(=O)Nc1ccc2nc(C)cc(N)c2c1)C(=O)Nc1ccc2nc(C)cc(N)c2c1
inactive: [1] 91 % of control | [2] 96 % of control

O/N=C1\CN2CCC1CC2
inactive: dose: 50.0 mg/kg/injection, schedule: Q01DX005 (ip), vehicle: saline 110 % of control | dose: 100.0 mg/kg/injection, schedule: Q01DX005 (ip), vehicle: saline 105 % of control

Cc1cc2cc3c4c(nn5nnnc5c4c2o1)-c1ccccc1CC3
inactive: [4] 92 % of control | [5] 86 % of control | [6] 95 % of control

CC1CCC2(CC1C)C(=O)NC(=O)NC2=O (stereo not drawn)
inactive: dose: 12.5 mg/kg/injection, schedule: Q04DX003 (ip), vehicle: Klucel (hydroxypropylcellulose) (HPC) 100 % of control | dose: 25.0 mg/kg/injection, schedule: Q04DX003 (ip), vehicle: Klucel (hydroxypropylcellulose) (HPC) 97 % of control | [7] 105 % of control | [8] 100 % of control

CSc1ccc(NC(=S)SC(C)C)cc1Cl
inactive: dose: 50.0 mg/kg/injection, schedule: Q01DX009 (ip), vehicle: saline 97 % of control | dose: 100.0 mg/kg/injection, schedule: Q01DX009 (ip), vehicle: saline 97 % of control | dose: 200.0 mg/kg/injection, schedule: Q01DX009 (ip), vehicle: saline 102 % of control
